Laboratory results reported in paper PMC8333425, “Discovery of a dual Ras and ARF6 inhibitor from a GPCR endocytosis screen” (Nature Communications, 2021).

Tests used:
Experiment in all cases: KINOMEscan kinase binding assay
[1] = target: T1, 384 kinases from the human genome (Homo sapiens, UniProt O00750); settings: kinase PIK3C2B (Entrez PIK3C2B)
T1 construct: purchased Eurofin/DiscoverX
Outline: (§1)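 A panel of 384 human kinases was profiled by KINOMEscan binding in the presence of 10 µM compound. Kinase–ligand binding was given as percent of DMSO control, averaged from duplicates in a single run, with an S(10) selectivity score.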

[2] = target: T2, 384 kinases from the human genome (Homo sapiens, UniProt O75716); settings: kinase STK16 (Entrez STK16)
T2 construct: purchased Eurofin/DiscoverX
Outline: as §1

[3] = target: T3, 384 kinases from the human genome (Homo sapiens, UniProt O75914); settings: kinase PAK3 (Entrez PAK3)
T3 construct: purchased Eurofin/DiscoverX
Outline: as §1

[4] = target: T4, 384 kinases from the human genome (Homo sapiens, UniProt O95835); settings: kinase LATS1 (Entrez LATS1)
T4 construct: purchased Eurofin/DiscoverX
Outline: as §1

[5] = target: T5, 384 kinases from the human genome (Homo sapiens, UniProt P00533)
T5 construct: purchased Eurofin/DiscoverX
Outline: as §1

[6] = target: T6, 384 kinases from the human genome (Homo sapiens, UniProt P08069); settings: kinase IGF1R (Entrez IGF1R)
T6 construct: purchased Eurofin/DiscoverX
Outline: as §1

[7] = target: T7, 384 kinases from the human genome (Homo sapiens, UniProt P17612); settings: kinase PKAC-alpha (Entrez PRKACA)
T7 construct: purchased Eurofin/DiscoverX
Outline: as §1

[8] = target: T8, 384 kinases from the human genome (Homo sapiens, UniProt P23443); settings: kinase S6K1 (Entrez RPS6KB1)
T8 construct: purchased Eurofin/DiscoverX
Outline: as §1

[9] = target: T9, 384 kinases from the human genome (Homo sapiens, UniProt P25098); settings: kinase GRK2 (Entrez ADRBK1)
T9 construct: purchased Eurofin/DiscoverX
Outline: as §1

[10] = target: T10, 384 kinases from the human genome (Homo sapiens, UniProt P28482); settings: kinase ERK2 (Entrez MAPK1)
T10 construct: purchased Eurofin/DiscoverX
Outline: as §1

[11] = target: T11, 384 kinases from the human genome (Homo sapiens, UniProt P37023); settings: kinase ACVRL1 (Entrez ACVRL1)
T11 construct: purchased Eurofin/DiscoverX
Outline: as §1

[12] = target: T12, 384 kinases from the human genome (Homo sapiens, UniProt P53350); settings: kinase PLK1 (Entrez PLK1)
T12 construct: purchased Eurofin/DiscoverX
Outline: as §1

[13] = target: T13, 384 kinases from the human genome (Homo sapiens, UniProt P54646); settings: kinase AMPK-alpha2 (Entrez PRKAA2)
T13 construct: purchased Eurofin/DiscoverX
Outline: as §1

[14] = target: T14, 384 kinases from the human genome (Homo sapiens, UniProt P54764); settings: kinase EPHA4 (Entrez EPHA4)
T14 construct: purchased Eurofin/DiscoverX
Outline: as §1

[15] = target: T15, 384 kinases from the human genome (Homo sapiens, UniProt P57059); settings: kinase SIK (Entrez SIK1)
T15 construct: purchased Eurofin/DiscoverX
Outline: as §1

[16] = target: T16, 384 kinases from the human genome (Homo sapiens, UniProt P80192); settings: kinase MLK1 (Entrez MAP3K9)
T16 construct: purchased Eurofin/DiscoverX
Outline: as §1

[17] = target: T17, 384 kinases from the human genome (Homo sapiens, UniProt Q00526); settings: kinase CDK3 (Entrez CDK3)
T17 construct: purchased Eurofin/DiscoverX
Outline: as §1

[18] = target: T18, 384 kinases from the human genome (Homo sapiens, UniProt Q07912); settings: kinase TNK2 (Entrez TNK2)
T18 construct: purchased Eurofin/DiscoverX
Outline: as §1

[19] = target: T19, 384 kinases from the human genome (Homo sapiens, UniProt Q12866); settings: kinase MERTK (Entrez MERTK)
T19 construct: purchased Eurofin/DiscoverX
Outline: as §1

[20] = target: T20, 384 kinases from the human genome (Homo sapiens, UniProt Q13555); settings: kinase CAMK2G (Entrez CAMK2G)
T20 construct: purchased Eurofin/DiscoverX
Outline: as §1

[21] = target: T21, 384 kinases from the human genome (Homo sapiens, UniProt Q16566); settings: kinase CAMK4 (Entrez CAMK4)
T21 construct: purchased Eurofin/DiscoverX
Outline: as §1

[22] = target: T22, 384 kinases from the human genome (Homo sapiens, UniProt Q59H18); settings: kinase TNNI3K (Entrez TNNI3K)
T22 construct: purchased Eurofin/DiscoverX
Outline: as §1

[23] = target: T23, 384 kinases from the human genome (Homo sapiens, UniProt Q8NE63); settings: kinase HIPK4 (Entrez HIPK4)
T23 construct: purchased Eurofin/DiscoverX
Outline: as §1

[24] = target: T24, 384 kinases from the human genome (Homo sapiens, UniProt Q9H2G2); settings: kinase SLK (Entrez SLK)
T24 construct: purchased Eurofin/DiscoverX
Outline: as §1

[25] = target: T25, 384 kinases from the human genome (Homo sapiens, UniProt Q9H2X6); settings: kinase HIPK2 (Entrez HIPK2)
T25 construct: purchased Eurofin/DiscoverX
Outline: as §1

[26] = target: T26, 384 kinases from the human genome (Homo sapiens, UniProt Q9H4A3); settings: kinase WNK1 (Entrez WNK1)
T26 construct: purchased Eurofin/DiscoverX
Outline: as §1

T5 sequence (P00533 25-1210): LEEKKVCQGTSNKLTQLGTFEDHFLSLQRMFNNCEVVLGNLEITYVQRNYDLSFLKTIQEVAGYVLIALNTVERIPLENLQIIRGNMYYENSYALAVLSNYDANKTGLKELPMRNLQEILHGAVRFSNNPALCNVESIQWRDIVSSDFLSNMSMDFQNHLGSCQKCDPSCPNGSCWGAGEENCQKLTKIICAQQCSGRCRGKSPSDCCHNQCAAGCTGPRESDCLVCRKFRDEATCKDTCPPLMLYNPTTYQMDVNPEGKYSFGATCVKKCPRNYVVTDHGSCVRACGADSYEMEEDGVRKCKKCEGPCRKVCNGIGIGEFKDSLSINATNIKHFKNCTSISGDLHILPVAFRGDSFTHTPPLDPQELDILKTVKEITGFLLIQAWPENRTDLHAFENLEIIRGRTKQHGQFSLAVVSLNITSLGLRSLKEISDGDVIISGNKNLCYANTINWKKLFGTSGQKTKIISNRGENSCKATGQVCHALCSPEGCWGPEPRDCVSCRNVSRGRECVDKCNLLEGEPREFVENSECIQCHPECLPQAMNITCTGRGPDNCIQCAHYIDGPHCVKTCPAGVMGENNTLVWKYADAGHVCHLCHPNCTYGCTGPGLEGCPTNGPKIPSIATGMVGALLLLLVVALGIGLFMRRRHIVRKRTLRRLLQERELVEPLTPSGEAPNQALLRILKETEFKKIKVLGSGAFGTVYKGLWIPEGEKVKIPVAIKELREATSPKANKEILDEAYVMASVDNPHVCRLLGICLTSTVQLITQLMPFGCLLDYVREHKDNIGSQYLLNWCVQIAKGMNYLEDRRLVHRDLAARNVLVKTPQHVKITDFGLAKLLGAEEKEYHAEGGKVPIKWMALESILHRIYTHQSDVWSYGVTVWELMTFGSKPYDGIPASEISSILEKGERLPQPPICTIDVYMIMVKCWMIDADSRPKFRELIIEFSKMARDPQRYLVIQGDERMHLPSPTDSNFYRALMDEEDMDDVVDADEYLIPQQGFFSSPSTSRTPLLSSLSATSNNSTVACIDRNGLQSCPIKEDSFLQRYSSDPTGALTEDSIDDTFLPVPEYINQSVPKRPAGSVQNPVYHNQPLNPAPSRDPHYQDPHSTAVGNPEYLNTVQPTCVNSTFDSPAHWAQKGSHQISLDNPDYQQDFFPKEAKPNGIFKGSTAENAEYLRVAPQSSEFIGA
T21 sequence (Q16566 whole entry): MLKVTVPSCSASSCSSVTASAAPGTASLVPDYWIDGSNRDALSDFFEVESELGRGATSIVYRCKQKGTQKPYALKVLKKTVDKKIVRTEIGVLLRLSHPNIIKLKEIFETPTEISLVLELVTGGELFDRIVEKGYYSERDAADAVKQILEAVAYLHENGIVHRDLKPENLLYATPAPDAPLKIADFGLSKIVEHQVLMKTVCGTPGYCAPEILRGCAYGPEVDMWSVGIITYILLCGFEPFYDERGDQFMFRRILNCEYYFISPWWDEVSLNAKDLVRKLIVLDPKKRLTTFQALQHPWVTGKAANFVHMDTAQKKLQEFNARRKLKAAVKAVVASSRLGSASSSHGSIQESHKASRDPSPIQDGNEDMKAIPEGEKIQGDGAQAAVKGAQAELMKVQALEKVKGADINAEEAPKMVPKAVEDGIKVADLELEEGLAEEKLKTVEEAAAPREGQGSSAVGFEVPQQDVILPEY
T9 sequence (P25098 whole entry): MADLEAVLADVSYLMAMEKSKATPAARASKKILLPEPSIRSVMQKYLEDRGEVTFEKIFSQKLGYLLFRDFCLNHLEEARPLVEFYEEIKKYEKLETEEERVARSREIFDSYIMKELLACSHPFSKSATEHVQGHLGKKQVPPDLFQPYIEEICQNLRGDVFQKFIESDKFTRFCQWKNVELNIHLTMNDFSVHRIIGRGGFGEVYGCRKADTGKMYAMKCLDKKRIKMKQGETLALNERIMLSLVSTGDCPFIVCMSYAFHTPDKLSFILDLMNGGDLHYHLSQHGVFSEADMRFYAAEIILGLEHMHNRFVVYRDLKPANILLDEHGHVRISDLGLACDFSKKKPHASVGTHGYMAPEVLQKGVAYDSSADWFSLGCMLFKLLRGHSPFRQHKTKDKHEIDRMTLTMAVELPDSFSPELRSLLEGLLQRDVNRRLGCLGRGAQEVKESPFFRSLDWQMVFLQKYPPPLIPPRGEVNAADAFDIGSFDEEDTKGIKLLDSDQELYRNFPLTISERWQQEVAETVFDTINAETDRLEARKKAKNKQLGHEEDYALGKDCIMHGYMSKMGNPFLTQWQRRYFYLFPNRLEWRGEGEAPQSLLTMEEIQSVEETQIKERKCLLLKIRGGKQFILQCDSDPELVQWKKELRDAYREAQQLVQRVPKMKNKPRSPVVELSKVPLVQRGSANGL
T10 sequence (P28482 whole entry): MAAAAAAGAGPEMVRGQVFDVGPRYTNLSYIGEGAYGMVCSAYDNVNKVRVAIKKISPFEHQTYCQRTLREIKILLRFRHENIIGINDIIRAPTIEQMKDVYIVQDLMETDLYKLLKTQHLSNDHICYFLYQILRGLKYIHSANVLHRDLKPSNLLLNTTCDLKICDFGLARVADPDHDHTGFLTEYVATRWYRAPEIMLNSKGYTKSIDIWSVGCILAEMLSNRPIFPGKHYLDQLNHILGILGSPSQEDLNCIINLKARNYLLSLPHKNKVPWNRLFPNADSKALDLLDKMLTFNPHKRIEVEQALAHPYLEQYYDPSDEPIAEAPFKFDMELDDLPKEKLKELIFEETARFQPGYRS
T26 sequence (Q9H4A3 whole entry): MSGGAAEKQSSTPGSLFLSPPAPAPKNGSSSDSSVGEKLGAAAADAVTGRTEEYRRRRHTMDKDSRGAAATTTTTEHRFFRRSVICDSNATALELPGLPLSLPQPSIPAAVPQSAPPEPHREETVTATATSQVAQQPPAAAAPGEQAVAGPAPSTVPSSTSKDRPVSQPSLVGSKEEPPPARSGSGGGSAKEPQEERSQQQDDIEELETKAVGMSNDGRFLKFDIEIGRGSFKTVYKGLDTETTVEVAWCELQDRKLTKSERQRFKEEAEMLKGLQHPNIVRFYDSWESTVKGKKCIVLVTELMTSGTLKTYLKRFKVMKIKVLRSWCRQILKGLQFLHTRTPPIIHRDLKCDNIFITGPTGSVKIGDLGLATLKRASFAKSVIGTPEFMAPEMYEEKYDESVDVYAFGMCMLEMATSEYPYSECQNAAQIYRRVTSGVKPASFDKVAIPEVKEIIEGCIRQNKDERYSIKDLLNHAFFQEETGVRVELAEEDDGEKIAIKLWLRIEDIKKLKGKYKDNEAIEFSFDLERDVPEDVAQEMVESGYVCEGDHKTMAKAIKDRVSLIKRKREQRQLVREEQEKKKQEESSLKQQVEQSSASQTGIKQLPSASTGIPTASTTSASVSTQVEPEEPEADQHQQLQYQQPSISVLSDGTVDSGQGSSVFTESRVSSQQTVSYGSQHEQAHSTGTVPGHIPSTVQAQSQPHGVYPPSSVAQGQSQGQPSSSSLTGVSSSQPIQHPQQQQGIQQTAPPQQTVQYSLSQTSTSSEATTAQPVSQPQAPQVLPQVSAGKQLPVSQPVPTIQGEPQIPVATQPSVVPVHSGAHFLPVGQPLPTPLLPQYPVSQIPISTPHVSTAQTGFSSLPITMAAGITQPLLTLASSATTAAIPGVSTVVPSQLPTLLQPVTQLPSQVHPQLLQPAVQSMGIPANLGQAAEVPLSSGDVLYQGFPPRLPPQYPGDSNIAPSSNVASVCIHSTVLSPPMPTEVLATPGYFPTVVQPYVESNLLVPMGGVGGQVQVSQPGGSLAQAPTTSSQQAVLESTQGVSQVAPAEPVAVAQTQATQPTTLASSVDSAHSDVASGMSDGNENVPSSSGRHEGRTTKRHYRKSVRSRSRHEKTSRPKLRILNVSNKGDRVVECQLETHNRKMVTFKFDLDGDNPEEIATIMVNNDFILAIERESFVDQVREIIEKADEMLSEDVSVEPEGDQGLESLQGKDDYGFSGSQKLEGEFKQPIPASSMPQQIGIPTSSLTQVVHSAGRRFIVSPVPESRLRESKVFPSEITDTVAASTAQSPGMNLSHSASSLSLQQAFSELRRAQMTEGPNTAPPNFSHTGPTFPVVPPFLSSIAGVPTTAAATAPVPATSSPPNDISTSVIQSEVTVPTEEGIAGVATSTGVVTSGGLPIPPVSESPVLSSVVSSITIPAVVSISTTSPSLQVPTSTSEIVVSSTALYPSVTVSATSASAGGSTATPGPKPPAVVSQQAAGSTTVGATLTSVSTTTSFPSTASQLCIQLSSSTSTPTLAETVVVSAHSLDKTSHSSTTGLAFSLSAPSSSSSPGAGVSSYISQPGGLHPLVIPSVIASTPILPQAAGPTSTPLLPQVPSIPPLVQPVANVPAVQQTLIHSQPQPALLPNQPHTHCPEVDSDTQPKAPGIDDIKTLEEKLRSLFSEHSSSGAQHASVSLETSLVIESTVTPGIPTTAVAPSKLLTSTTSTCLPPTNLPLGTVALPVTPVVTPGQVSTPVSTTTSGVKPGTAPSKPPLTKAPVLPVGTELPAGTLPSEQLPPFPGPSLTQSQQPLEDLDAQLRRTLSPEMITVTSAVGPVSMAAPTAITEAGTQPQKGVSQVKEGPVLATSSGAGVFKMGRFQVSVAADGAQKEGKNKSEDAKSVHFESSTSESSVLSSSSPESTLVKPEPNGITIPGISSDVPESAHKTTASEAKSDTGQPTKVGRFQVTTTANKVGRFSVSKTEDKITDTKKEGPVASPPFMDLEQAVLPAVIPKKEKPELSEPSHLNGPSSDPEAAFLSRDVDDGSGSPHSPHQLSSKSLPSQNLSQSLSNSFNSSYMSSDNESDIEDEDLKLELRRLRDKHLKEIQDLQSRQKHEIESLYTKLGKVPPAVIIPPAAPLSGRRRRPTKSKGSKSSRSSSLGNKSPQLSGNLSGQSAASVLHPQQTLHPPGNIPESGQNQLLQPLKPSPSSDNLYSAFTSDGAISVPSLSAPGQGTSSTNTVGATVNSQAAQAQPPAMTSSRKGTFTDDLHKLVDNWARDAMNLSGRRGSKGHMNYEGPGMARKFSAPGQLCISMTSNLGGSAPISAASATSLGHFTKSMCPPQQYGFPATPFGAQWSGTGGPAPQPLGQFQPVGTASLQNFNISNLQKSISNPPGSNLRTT

Q: `CC(C)C(=O)N1CCN(c2ccc(NC(=O)c3cc4ccccc4o3)cc2Cl)CC1` [Compound 21] was tested. Which “Percent Control” value [1] did it give?
A: Its value is 98%.

Q: What about the “Percent Control” value [2] of the same molecule?
A: Its value is 100%.

Q: And the “Percent Control” value [3]?
A: Its value is 92%.

Q: What about the “Percent Control” value [4] of the same molecule?
A: Its value is 98%.

Q: And the “binding to EGFR” value ([5]; 10 µM of 21)?
A: The value was “failed to bind”.

Q: And the “Percent Control” value ([5]; kinase EGFR (Entrez EGFR))?
A: Its value is 89%.

Q: What about the “Percent Control” value [6] of the same molecule?
A: The value was 76%.

Q: And the “Percent Control” value [7]?
A: The value was 97%.

Q: And the “Percent Control” value [8]?
A: The value was 94%.

Q: And the “Percent Control” value [9]?
A: The value was 99%.

Q: And the “Percent Control” value [10]?
A: The value was 97%.

Q: And the “Percent Control” value [11]?
A: Its value is 94%.

Q: What about the “Percent Control” value [12] of the same molecule?
A: The value was 77%.

Q: What about the “Percent Control” value [13] of the same molecule?
A: The value was 85%.

Q: What about the “Percent Control” value [14] of the same molecule?
A: The value was 95%.

Q: And the “Percent Control” value [15]?
A: Its value is 94%.

Q: What about the “Percent Control” value [16] of the same molecule?
A: The value was 96%.

Q: And the “Percent Control” value [17]?
A: Its value is 99%.

Q: What about the “Percent Control” value [18] of the same molecule?
A: The value was 68%.

Q: And the “Percent Control” value [19]?
A: Its value is 70%.

Q: What about the “Percent Control” value [20] of the same molecule?
A: The value was 98%.

Q: What about the “Percent Control” value [21] of the same molecule?
A: Its value is 100%.

Q: And the “Percent Control” value [22]?
A: The value was 70%.

Q: And the “Percent Control” value [23]?
A: Its value is 100%.

Q: And the “Percent Control” value [24]?
A: Its value is 100%.

Q: What about the “Percent Control” value [25] of the same molecule?
A: Its value is 100%.

Q: What about the “Percent Control” value [26] of the same molecule?
A: The value was 94%.
